Assay results taken from patent US20250100994A1, “CDK12/13 COVALENT INHIBITORS OR PHARMACEUTICAL COMPOSITION THEREOF, AND USES THEREOF” (The Regents of the University of Michigan, priority 2023, published 2025).
pIC50: −log10 of the molar value.

How the values were obtained:
VCaP cell = VCaP cell proliferation, CellTiter-Glo Luminescent Cell Viability Assay; assay type: cell-based; conditions: VCaP cells
Protocol: The VCaP cell proliferation activity was determined by CellTiter-Glo Luminescent Cell Viability Assay (Promega, Madison, WI). The cells were inoculated on a 96-well plate in their respective culture mediums, and incubated in an incubator with 5% CO2 at 37° C. After incubation overnight, serial dilutions of the compound were prepared, and added into the 96-well plate. A CellTiter-Glo reagent (volume equal to the volume of the cell culture medium present in each well) was added (e.g., 100 μL of the reagent was added into 100 μL of the cell culture medium in the 96-well plate). The contents were mixed on an orbital shaker for 2 min to induce the cell lysis. The cells in the 96-well plate were incubated at room temperature for 10 min, to stabilize the luminescent signal. Luminescence was recorded: the luminescent signal for each well was acquired using an Infinite M1000 Pro plate reader (Tecan, Zurich, Switzerland), and the data was analyzed using GraphPad Prism software (GraphPad Software Inc, La Jolla, CA).

CDK12 = CDK12 (Homo sapiens (Human), UniProt Q9NYV4); assay: LANCE Ultra kinase assay, CDK12; assay type: biochemical; conditions: 30 nM enzyme, 60 min pre-incubation, ULight-4E-BP1 150 nM; read-out: CDK12 IC50
Protocol: (§1) The inhibitory activities of the test compound on the kinases were evaluated by LANCE Ultra assay, which was used for detecting ATP-dependent phosphorylation of a ULight-4E-BP1 (Thr37/Thr46) substrate peptide (150 nM). In short, enzymatic reactions were performed in a reaction buffer (25 mM HEPES (pH 7.5), 10 mM MgCl2, 0.01% BSA, 0.01% Tween 20, and 1 mM DTT). The assay was performed in a 384-well plate (6 μL). A final concentration of an ATP substrate was […], and a final concentration of the ULight-4E-BP1 (Thr37/Thr46) substrate peptide was 150 nM. A final concentration of CDK9, CDK12, or CDK13 was 0.3, 30, or 30 nM, respectively. Pre-incubation of the compound and the enzyme was performed at room temperature for 60 min. The reaction was stopped by adding 10 mM EDTA and 0.15 nM Eu-labeled anti-phospho-eIF4E-binding protein 1 (Thr37/46) antibody in LANCE detection buffer after incubation at room temperature for 15, 60, or 90 min. Time-resolved fluorescence (excitation, 320 nm; emission donor, 615 nm; emission acceptor, 665 nm) was monitored using an EnVision spectrophotometer (PerkinElmer). Readings were computed as (acceptor count/donor count)×1000. IC50 values were derived by fitting a sigmoidal dose-response curve to a plot of assay readouts of inhibitor concentrations. All fittings were computed using program Prism 5.03 (GraphPad Software, San Diego, CA).

CDK13 = CDK13 (Homo sapiens (Human), UniProt Q14004); assay: LANCE Ultra kinase assay, CDK13; assay type: biochemical; conditions: 30 nM enzyme, 60 min pre-incubation, ULight-4E-BP1 150 nM; read-out: CDK13 IC50
Protocol: as §1

CDK12, sequence (Q9NYV4 whole entry): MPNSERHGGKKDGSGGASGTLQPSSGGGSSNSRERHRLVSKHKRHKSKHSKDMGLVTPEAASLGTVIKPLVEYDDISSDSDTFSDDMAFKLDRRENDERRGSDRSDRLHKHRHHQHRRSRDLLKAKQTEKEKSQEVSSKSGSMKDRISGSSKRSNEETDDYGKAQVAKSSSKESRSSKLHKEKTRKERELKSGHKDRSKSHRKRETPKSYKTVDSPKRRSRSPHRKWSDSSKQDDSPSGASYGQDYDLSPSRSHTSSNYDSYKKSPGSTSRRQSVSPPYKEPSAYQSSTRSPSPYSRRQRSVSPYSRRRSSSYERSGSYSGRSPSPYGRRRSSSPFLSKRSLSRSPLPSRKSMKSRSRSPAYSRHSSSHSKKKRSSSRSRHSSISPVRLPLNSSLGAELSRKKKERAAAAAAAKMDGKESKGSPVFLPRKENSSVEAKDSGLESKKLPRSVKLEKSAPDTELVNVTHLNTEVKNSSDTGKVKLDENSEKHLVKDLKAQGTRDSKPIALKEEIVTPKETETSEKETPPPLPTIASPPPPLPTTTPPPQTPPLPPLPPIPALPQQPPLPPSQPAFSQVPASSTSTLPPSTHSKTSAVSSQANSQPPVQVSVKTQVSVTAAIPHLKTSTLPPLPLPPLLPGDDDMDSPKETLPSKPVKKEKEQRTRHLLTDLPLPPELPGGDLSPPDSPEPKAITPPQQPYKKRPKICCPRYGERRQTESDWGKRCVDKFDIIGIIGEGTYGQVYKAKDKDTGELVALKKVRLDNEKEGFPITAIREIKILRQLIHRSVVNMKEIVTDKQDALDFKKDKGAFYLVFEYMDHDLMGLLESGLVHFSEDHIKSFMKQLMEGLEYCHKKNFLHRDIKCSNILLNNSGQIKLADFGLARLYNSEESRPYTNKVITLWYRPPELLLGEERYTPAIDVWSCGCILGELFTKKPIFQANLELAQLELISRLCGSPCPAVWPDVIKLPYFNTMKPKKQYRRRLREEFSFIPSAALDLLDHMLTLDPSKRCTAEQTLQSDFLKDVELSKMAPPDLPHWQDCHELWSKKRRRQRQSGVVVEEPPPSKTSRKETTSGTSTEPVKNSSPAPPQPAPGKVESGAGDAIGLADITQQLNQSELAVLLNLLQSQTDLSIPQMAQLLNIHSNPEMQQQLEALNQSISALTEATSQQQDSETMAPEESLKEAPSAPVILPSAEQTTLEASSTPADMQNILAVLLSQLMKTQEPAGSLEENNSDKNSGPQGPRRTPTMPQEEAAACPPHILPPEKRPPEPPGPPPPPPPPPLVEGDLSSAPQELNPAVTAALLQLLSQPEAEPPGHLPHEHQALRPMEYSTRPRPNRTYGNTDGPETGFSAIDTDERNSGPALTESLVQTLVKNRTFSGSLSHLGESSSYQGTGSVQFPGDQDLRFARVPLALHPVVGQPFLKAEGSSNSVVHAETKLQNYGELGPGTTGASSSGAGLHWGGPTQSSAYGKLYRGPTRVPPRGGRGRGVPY
CDK12, sequence (O75909 whole entry partner): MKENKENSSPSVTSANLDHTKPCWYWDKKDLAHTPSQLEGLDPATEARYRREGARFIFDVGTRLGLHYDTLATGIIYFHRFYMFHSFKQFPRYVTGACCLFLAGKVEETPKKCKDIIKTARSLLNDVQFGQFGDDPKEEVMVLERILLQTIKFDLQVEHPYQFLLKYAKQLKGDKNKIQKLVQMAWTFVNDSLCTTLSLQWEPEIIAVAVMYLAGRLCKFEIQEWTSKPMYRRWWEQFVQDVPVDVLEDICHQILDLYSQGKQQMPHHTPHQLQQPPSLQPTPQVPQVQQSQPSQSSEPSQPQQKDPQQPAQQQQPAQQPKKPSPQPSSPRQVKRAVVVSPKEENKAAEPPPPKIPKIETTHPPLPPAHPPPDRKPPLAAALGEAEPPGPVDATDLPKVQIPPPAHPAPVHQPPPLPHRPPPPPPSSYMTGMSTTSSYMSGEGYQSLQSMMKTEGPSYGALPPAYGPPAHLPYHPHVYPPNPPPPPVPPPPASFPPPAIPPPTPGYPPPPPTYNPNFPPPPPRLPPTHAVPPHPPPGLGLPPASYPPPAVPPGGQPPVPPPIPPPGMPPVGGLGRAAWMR
CDK13, sequence (Q14004 whole entry, looked up): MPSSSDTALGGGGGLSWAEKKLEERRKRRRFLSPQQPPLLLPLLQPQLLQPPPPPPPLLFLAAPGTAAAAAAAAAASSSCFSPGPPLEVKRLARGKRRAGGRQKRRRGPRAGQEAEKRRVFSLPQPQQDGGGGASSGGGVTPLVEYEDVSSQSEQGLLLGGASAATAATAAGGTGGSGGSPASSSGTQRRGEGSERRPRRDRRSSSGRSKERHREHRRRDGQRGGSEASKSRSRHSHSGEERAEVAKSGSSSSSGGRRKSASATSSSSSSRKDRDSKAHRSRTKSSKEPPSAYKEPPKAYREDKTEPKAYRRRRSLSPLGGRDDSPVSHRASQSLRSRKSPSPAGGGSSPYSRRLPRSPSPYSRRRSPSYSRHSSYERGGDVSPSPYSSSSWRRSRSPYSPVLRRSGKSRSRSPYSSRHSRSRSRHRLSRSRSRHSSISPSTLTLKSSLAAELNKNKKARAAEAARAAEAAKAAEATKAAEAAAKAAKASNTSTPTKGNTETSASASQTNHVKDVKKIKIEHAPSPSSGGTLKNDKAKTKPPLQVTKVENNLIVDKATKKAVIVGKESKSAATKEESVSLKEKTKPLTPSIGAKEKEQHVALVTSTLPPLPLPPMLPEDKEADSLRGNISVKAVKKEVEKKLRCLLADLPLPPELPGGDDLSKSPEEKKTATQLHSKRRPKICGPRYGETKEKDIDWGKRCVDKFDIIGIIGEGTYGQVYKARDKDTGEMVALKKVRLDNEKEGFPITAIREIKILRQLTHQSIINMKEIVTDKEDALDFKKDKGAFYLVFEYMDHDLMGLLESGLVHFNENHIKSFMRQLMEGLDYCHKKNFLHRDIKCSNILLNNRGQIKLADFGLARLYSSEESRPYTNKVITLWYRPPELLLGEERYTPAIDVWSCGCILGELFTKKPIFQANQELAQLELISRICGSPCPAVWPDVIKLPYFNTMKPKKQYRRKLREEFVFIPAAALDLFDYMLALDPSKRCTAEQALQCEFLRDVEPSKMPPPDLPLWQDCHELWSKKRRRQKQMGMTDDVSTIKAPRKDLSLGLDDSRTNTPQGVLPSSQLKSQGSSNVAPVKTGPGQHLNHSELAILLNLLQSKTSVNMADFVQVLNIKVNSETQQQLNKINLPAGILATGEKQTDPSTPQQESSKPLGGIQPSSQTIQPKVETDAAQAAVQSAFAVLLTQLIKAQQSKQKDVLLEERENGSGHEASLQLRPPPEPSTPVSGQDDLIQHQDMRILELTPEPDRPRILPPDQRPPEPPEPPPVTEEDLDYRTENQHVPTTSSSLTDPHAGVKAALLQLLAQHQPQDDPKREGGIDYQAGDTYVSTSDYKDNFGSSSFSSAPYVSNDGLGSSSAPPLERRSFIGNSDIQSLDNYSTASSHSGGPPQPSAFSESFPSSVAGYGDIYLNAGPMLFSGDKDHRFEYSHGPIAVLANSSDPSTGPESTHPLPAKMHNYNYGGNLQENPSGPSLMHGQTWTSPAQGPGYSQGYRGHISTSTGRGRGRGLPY
CDK13, sequence (O75909 whole entry partner, looked up): as the sequence (O75909 whole entry partner) above

Row | pIC50 (VCaP cell; Homo sapiens) | pIC50 (CDK12) | pIC50 (CDK13) | pIC50 (VCaP cell) | SMILES
1 | 7.30 to 7.82 |  |  |  | C=CC(=O)Nc1cc(N2CCN(C)[C@@H](C)C2)cc(N(C(=O)NCc2ccccc2)[C@H]2CC[C@H](Nc3ccc(C#N)cn3)CC2)c1 [YJZ8062]
2 | 6.30 to 7.30 |  |  |  | C=CC(=O)Nc1cc(OC)cc(N(C(=O)NCc2ccccc2)[C@H]2CC[C@H](Nc3ccc(C#N)cn3)CC2)c1 [YJZ8058, N-(3-(3-benzyl-1-((1r,4r)-4-((5-cyanopyridin-2-yl)amino)cyclohexyl)ureido)-5-methoxyphenyl)acrylamide]
3 | 6.30 to 7.30 | 7.30 to 7.82 | 7.30 to 7.82 |  | C=CC(=O)Nc1cc(N(C(=O)NCc2ccccc2)[C@H]2CC[C@H](Nc3ccc(C#N)cn3)CC2)ccc1N1C[C@H]2C[C@@H]1CN2C [YJZ6096, N-(5-(3-benzyl-1-((1r,4R)-4-((5-cyanopyridin-2-yl)amino)cyclohexyl)ureido)-2-((1R,4R)-5-methyl-2,5-diazabicyclo[2.2.1]heptan-2-yl)phenyl)acrylamide]
4 | 6.30 to 7.30 | 6.30 to 7.30 | 6.30 to 7.30 |  | C=CC(=O)Nc1cc(N(C(=O)NCc2ccccc2)[C@H]2CC[C@H](Nc3ccc(C#N)cn3)CC2)ccc1N1CC(N(C)C)C1 [YJZ6077, N-(5-(3-benzyl-1-((1r,4r)-4-((5-cyanopyridin-2-yl)amino)cyclohexyl)ureido)-2-(3-(dimethylamino)azetidin-1-yl)phenyl)acrylamide]
5 | 7.30 to 7.82 |  |  |  | C=CC(=O)Nc1cc(N(C(=O)C(=O)NCc2cccc(F)c2F)[C@H]2CC[C@H](Nc3ccc(C#N)cn3)CC2)ccc1N1CCN(C)[C@@H](C)C1 [YJZ8107, N1-(3-acrylamido-4-((S)-3,4-dimethylpiperazin-1-yl)phenyl)-N1-((1r,4S)-4-((5-cyanopyridin-2-yl)amino)cyclohexyl)-N2-(2,3-difluorobenzyl)oxalamide]
6 | 7.30 to 7.82 | 6.30 to 7.30 | > 7.82 |  | C=CC(=O)Nc1cc(N(C(=O)NCc2ccccc2)[C@H]2CC[C@H](Nc3ccc(C#N)cn3)CC2)ccc1N1CCOCC1 [YJZ5127, N-(5-(3-benzyl-1-((1r,4r)-4-((5-cyanopyridin-2-yl)amino)cyclohexyl)ureido)-2-morpholinophenyl)acrylamide]
7 | 7.30 to 7.82 |  |  |  | C=CC(=O)Nc1cc(N(C(=O)C(=O)NCC2CC2)[C@H]2CC[C@H](Nc3ccc(C#N)cn3)CC2)ccc1N1CCN(C)[C@@H](C)C1 [YJZ8103, N1-(3-acrylamido-4-((S)-3,4-dimethylpiperazin-1-yl)phenyl)-N1-((1r,4S)-4-((5-cyanopyridin-2-yl)amino)cyclohexyl)-N2-(cyclopropylmethyl)oxalamide]
8 | 6.30 to 7.30 |  |  |  | C=CC(=O)Nc1cc(N([C@H]2CC[C@H](Nc3ccc(C#N)cn3)CC2)S(=O)(=O)Cc2ccccc2)ccc1N1CCC(N(C)C)CC1 [YJZ6136, N-(5-((N-((1r,4r)-4-((5-cyanopyridin-2-yl)amino)cyclohexyl)-1-phenylmethyl)sulfonamido)-2-(4-(dimethylamino)piperidin-1-yl)phenyl)acrylamide]
9 | 7.30 to 7.82 | 7.30 to 7.82 | > 7.82 |  | C=CC(=O)Nc1cc(N(C(=O)NCc2ccccc2)[C@H]2CC[C@H](Nc3ccc(C#N)cn3)CC2)ccc1N1CCN[C@@H](C)C1 [YJZ8027]
10 | 7.30 to 7.82 |  |  |  | C=CC(=O)Nc1cc(N(C(=O)NCc2ccccc2)[C@H]2CC[C@H](Nc3ncc(C#N)cn3)CC2)ccc1N1CCN(C)[C@@H](C)C1 [YJZ7007]
11 | 7.30 to 7.82 |  |  |  | C=CC(=O)Nc1cc(N(C(=O)C(=O)N[C@H](C)c2ccccc2)[C@H]2CC[C@H](Nc3ccc(C#N)cn3)CC2)ccc1N1CCN(C)[C@@H](C)C1 [YJZ8105, N1-(3-acrylamido-4-((S)-3,4-dimethylpiperazin-1-yl)phenyl)-N1-((1r,4R)-4-((5-cyanopyridin-2-yl)amino)cyclohexyl)-N2-((R)-1-phenylethyl)oxalamide]
12 | 6.30 to 7.30 | 7.30 to 7.82 | > 7.82 |  | C=CC(=O)Nc1cc(N(C(=O)NCc2ccccc2)[C@H]2CC[C@H](Nc3ccc(C#N)cn3)CC2)ccc1-c1ccc(=O)n(C)c1 [YJZ5028]
13 |  | 6.30 to 7.30 | 7.30 to 7.82 | > 7.82 | C=CC(=O)Nc1cc(N(C(=O)NCc2ccccc2)[C@H]2CC[C@H](Nc3ccc(C#N)cn3)CC2)cc(F)c1N1CCN(C)[C@@H](C)C1 [YJZ8070]
14 | 7.30 to 7.82 |  |  |  | C=CC(=O)Nc1cc(N(C(=O)C(=O)NC2CC2)[C@H]2CC[C@H](Nc3ccc(C#N)cn3)CC2)ccc1N1CCN(C)[C@@H](C)C1 [YJZ8095, N1-(3-acrylamido-4-((S)-3,4-dimethylpiperazin-1-yl)phenyl)-N1-((1r,4S)-4-((5-cyanopyridin-2-yl)amino)cyclohexyl)-N2-cyclopropyloxalamide]
15 | 7.30 to 7.82 |  |  |  | C=CC(=O)Nc1cc(N(C(=O)C(=O)NCc2cccc(F)c2)[C@H]2CC[C@H](Nc3ccc(C#N)cn3)CC2)ccc1N1CCN(C)[C@@H](C)C1 [YJZ8087, N1-(3-acrylamido-4-((S)-3,4-dimethylpiperazin-1-yl)phenyl)-N1-((1r,4S)-4-((5-cyanopyridin-2-yl)amino)cyclohexyl)-N2-(3-fluorobenzyl)oxalamide]
16 | 7.30 to 7.82 |  |  |  | C=CC(=O)Nc1cc(N(C(=O)C(=O)NCc2cc(F)cc(F)c2)[C@H]2CC[C@H](Nc3ccc(C#N)cn3)CC2)ccc1N1CCN(C)[C@@H](C)C1 [YJZ8102, N1-(3-acrylamido-4-((S)-3,4-dimethylpiperazin-1-yl)phenyl)-N1-((1r,4S)-4-((5-cyanopyridin-2-yl)amino)cyclohexyl)-N2-(3,5-difluorobenzyl)oxalamide]
17 | < 6.30 |  |  |  | C=CC(=O)Nc1cc(N(C(C)=O)[C@H]2CC[C@H](Nc3ccc(C#N)cn3)CC2)ccc1N1CCC(N(C)C)CC1 [YJZ6115, N-(5-(N-((1r,4r)-4-((5-cyanopyridin-2-yl)amino)cyclohexyl)acetamido)-2-(4-(dimethylamino)piperidin-1-yl)phenyl)acrylamide]
18 | 7.30 to 7.82 |  |  |  | C=CC(=O)Nc1cc(N(C(=O)C(=O)NCc2ccc(F)cc2)[C@H]2CC[C@H](Nc3ccc(C#N)cn3)CC2)ccc1N1CCN(C)[C@@H](C)C1 [YJZ8093, N1-(3-acrylamido-4-((S)-3,4-dimethylpiperazin-1-yl)phenyl)-N1-((1r,4S)-4-((5-cyanopyridin-2-yl)amino)cyclohexyl)-N2-(4-fluorobenzyl)oxalamide]
19 | 6.30 to 7.30 |  |  |  | C=CC(=O)Nc1cc(Br)cc(N(C(=O)NCc2ccccc2)[C@H]2CC[C@H](Nc3ccc(C#N)cn3)CC2)c1 [YJZ8053, N-(3-(3-benzyl-1-((1r,4r)-4-((5-cyanopyridin-2-yl)amino)cyclohexyl)ureido)-5-bromophenyl)acrylamide]
20 | 6.30 to 7.30 |  |  |  | CN(C)C/C=C/C(=O)Nc1cc(N(C(=O)NCc2ccccc2)[C@H]2CC[C@H](Nc3ccc(C#N)cn3)CC2)ccc1-c1ccc(=O)n(C)c1 [YJZ5078]
21 | < 6.30 |  |  |  | C=CC(=O)Nc1cc(N([C@H]2CC[C@H](Nc3ccc(C#N)cn3)CC2)S(C)(=O)=O)ccc1N1CCC(N(C)C)CC1 [YJZ6131, N-(5-(N-((1r,4r)-4-((5-cyanopyridin-2-yl)amino)cyclohexyl)methylsulfonamido)-2-(4-(dimethylamino)piperidin-1-yl)phenyl)acrylamide]
22 | > 7.82 |  |  |  | C=CC(=O)Nc1cc(N(C(=O)C(=O)NCc2ccc(F)c(F)c2)[C@H]2CC[C@H](Nc3ccc(C#N)cn3)CC2)ccc1N1CCN(C)[C@@H](C)C1 [YJZ8101, N1-(3-acrylamido-4-((S)-3,4-dimethylpiperazin-1-yl)phenyl)-N1-((1r,4S)-4-((5-cyanopyridin-2-yl)amino)cyclohexyl)-N2-(3,4-difluorobenzyl)oxalamide]
23 | 7.30 to 7.82 |  |  |  | C=CC(=O)Nc1cc(N(C(=O)C(=O)NCC(F)(F)F)[C@H]2CC[C@H](Nc3ccc(C#N)cn3)CC2)ccc1N1CCN(C)[C@@H](C)C1 [YJZ8104, N1-(3-acrylamido-4-((S)-3,4-dimethylpiperazin-1-yl)phenyl)-N1-((1r,4S)-4-((5-cyanopyridin-2-yl)amino)cyclohexyl)-N2-(2,2,2-trifluoroethyl)oxalamide]
24 |  | 6.30 to 7.30 | 7.30 to 7.82 |  | C=C(F)C(=O)Nc1cc(N(C(=O)NCc2ccccc2)[C@H]2CC[C@H](Nc3ccc(C#N)cn3)CC2)ccc1N1CCN(C)[C@@H](C)C1 [YJZ1072, N-(5-(3-benzyl-1-((1r,4S)-4-((5-cyanopyridin-2-yl)amino)cyclohexyl)ureido)-2-((S)-3,4-dimethylpiperazin-1-yl)phenyl)-2-fluoroacrylamide]
